Legend:
Assay in all cases: Test B pre-/postemergence plant response
Assay type in all cases: in vivo
[1] = tested on: johnsongrass (Sorghum halepense); settings: Postemergence
Method in brief: (§1)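 Ratings reflect visual comparison with untreated controls 13 to 15 days after application, from 0 (no effect) to 100 (complete control). Application was preemergence to seeded loam/sand soil or postemergence to 1- to 4-leaf plants, with compound in a non-phytotoxic, surfactant-containing solvent.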

[2] = tested on: woolly cupgrass (Eriochloa villosa); settings: Postemergence
Method in brief: as §1

[3] = tested on: downy bromegrass (Bromus tectorum); settings: for Plant response rating, Bromegrass, Downy: Postemergence; for Bromegrass, Downy plant response rating (0 to 100 scale): 62 g ai/ha, postemergence, 0 is no effect, 100 is complete control
Method in brief: as §1

[4] = tested on: velvetleaf (Abutilon theophrasti); settings: Postemergence
Method in brief: as §1

soybean (Glycine max) = settings: Postemergence
Method in brief: as §1

wild oat (Avena fatua) = settings: Postemergence
Method in brief: as §1

[5] = tested on: blackgrass (Alopecurus myosuroides); settings: for Plant response rating, Blackgrass: Postemergence; for Blackgrass plant response rating (0 to 100 scale): 62 g ai/ha, postemergence, 0 is no effect, 100 is complete control
Method in brief: as §1

[6] = tested on: yellow nutsedge (Cyperus esculentus); settings: Postemergence
Method in brief: as §1

[7] = tested on: morningglory (Ipomoea coccinea); settings: Postemergence
Method in brief: as §1

kochia (Kochia scoparia) = settings: Postemergence
Method in brief: as §1

[8] = tested on: green foxtail (Setaria viridis); settings: Postemergence
Method in brief: as §1

corn (Zea mays) = settings: Postemergence
Method in brief: as §1

[9] = tested on: large crabgrass (Digitaria sanguinalis); settings: Postemergence
Method in brief: as §1

[10] = tested on: goosegrass (Eleusine indica); settings: Postemergence
Method in brief: as §1

[11] = tested on: lambsquarters (Chenopodium album); settings: Postemergence
Method in brief: as §1

[12] = tested on: pigweed (Amaranthus retroflexus); settings: Postemergence
Method in brief: as §1

[13] = 31 g ai/ha, 0 to 100 scale (0 no effect, 100 complete control)
[14] = 125 g ai/ha, scale 0 to 100 (0 no effect, 100 complete control)
[15] = 250 g ai/ha, scale 0 to 100 (0 no effect, 100 complete control), 13 to 15 days

O=C1CCCC(O)=C1C(=O)c1cnc(-c2ccccc2)n(C2CC[S+]([O-])CC2)c1=O (mixture of isomers) [Compound 169, 5-[(2-hydroxy-6-oxo-1-cyclohexen-1-yl)carbonyl]-2-phenyl-3-(trans/cis-tetrahydro-1-oxido-2H-thiopyran-4-yl)-4(3H)-pyrimidinone]
Plant response rating, Johnsongrass ([1]; 16 g ai/ha, 0 to 100 scale): 40
Plant response rating, Johnsongrass [1, 13]: 60
Plant response rating, Johnsongrass [1, 14]: 65
Plant response rating, Cupgrass, Woolly ([2]; 16 g ai/ha, 0 to 100 scale): 75
Plant response rating, Cupgrass, Woolly [2, 13]: 85
Plant response rating, Cupgrass, Woolly [2, 14]: 100
Plant response rating, Bromegrass, Downy ([3]; 16 g ai/ha, 0 to 100 scale): 0
Bromegrass, Downy plant response rating (0 to 100 scale) ([3]; 13 to 15 days): 40
Plant response rating, Bromegrass, Downy [3, 13]: 10
Plant response rating, Bromegrass, Downy [3, 14]: 90
Plant response rating, Velvetleaf ([4]; 16 g ai/ha, 0 to 100 scale): 75
Plant response rating, Velvetleaf [4, 13]: 100
Plant response rating, Velvetleaf [4, 14]: 100
Plant response rating, Soybean (soybean (Glycine max); 16 g ai/ha, 0 to 100 scale): 55
Plant response rating, Soybean (soybean (Glycine max); [13]): 90
Plant response rating, Soybean (soybean (Glycine max); [14]): 95
Plant response rating, Oat, Wild (wild oat (Avena fatua); 16 g ai/ha, 0 to 100 scale): 0
Plant response rating, Oat, Wild (wild oat (Avena fatua); [13]): 0
Plant response rating, Oat, Wild (wild oat (Avena fatua); [14]): 85
Plant response rating, Blackgrass ([5]; 16 g ai/ha, 0 to 100 scale): 0
Blackgrass plant response rating (0 to 100 scale) ([5]; 13 to 15 days): 5
Plant response rating, Blackgrass [5, 13]: 5
Plant response rating, Blackgrass [5, 14]: 10
Plant response rating, Nutsedge, Yellow ([6]; 16 g ai/ha, 0 to 100 scale): 0
Plant response rating, Nutsedge, Yellow [6, 13]: 0
Plant response rating, Nutsedge, Yellow [6, 14]: 55
Plant response rating, Morningglory ([7]; 16 g ai/ha, 0 to 100 scale): 95
Plant response rating, Morningglory [7, 13]: 95
Plant response rating, Morningglory [7, 14]: 100
Plant response rating, Kochia (kochia (Kochia scoparia); 16 g ai/ha, 0 to 100 scale): 100
Plant response rating, Kochia (kochia (Kochia scoparia); [13]): 100
Plant response rating, Kochia (kochia (Kochia scoparia); [14]): 100
Plant response rating, Foxtail, Green ([8]; 16 g ai/ha, 0 to 100 scale): 45
Plant response rating, Foxtail, Green [8, 13]: 60
Plant response rating, Foxtail, Green [8, 14]: 95
Plant response rating, Corn (corn (Zea mays); 16 g ai/ha, 0 to 100 scale): 20
Plant response rating, Corn (corn (Zea mays); [13]): 45
Plant response rating, Corn (corn (Zea mays); [14]): 55
Plant response rating, Crabgrass, Large ([9]; 16 g ai/ha, 0 to 100 scale): 75
Plant response rating, Crabgrass, Large [9, 13]: 85
Plant response rating, Crabgrass, Large [9, 14]: 100
Plant response rating, Goosegrass ([10]; 16 g ai/ha, 0 to 100 scale): 80
Plant response rating, Goosegrass [10, 13]: 95
Plant response rating, Goosegrass [10, 14]: 100
Plant response rating, Lambsquarters ([11]; 16 g ai/ha, 0 to 100 scale): 95
Plant response rating, Lambsquarters [11, 13]: 100
Plant response rating, Lambsquarters [11, 14]: 100
Plant response rating, Pigweed ([12]; 16 g ai/ha, 0 to 100 scale): 90
Plant response rating, Pigweed [12, 13]: 100
Plant response rating, Pigweed [12, 14]: 100

CCCn1c(-c2cc(Cl)cc(Cl)c2)ncc(C(=O)C2=C(O)CCCC2=O)c1=O [Compound 173]
Plant response rating, Johnsongrass [1, 13]: 65
Plant response rating, Johnsongrass [1, 14]: 95
Plant response rating, Cupgrass, Woolly [2, 13]: 85
Plant response rating, Cupgrass, Woolly [2, 14]: 100
Plant response rating, Cupgrass, Woolly [2, 15]: 100
Bromegrass, Downy plant response rating (0 to 100 scale) ([3]; 13 to 15 days): 25
Plant response rating, Bromegrass, Downy [3, 13]: 5
Plant response rating, Bromegrass, Downy [3, 14]: 40
Plant response rating, Bromegrass, Downy [3, 15]: 70
Plant response rating, Velvetleaf [4, 13]: 100
Plant response rating, Velvetleaf [4, 14]: 100
Plant response rating, Velvetleaf [4, 15]: 100
Plant response rating, Soybean (soybean (Glycine max); [13]): 60
Plant response rating, Soybean (soybean (Glycine max); [14]): 95
Plant response rating, Soybean (soybean (Glycine max); [15]): 100
Plant response rating, Oat, Wild (wild oat (Avena fatua); [13]): 50
Plant response rating, Oat, Wild (wild oat (Avena fatua); [14]): 70
Plant response rating, Oat, Wild (wild oat (Avena fatua); [15]): 85
Blackgrass plant response rating (0 to 100 scale) ([5]; 13 to 15 days): 10
Plant response rating, Blackgrass [5, 13]: 5
Plant response rating, Blackgrass [5, 14]: 30
Plant response rating, Blackgrass [5, 15]: 50
Plant response rating, Nutsedge, Yellow [6, 13]: 45
Plant response rating, Nutsedge, Yellow [6, 14]: 60
Plant response rating, Nutsedge, Yellow [6, 15]: 75
Plant response rating, Morningglory [7, 13]: 75
Plant response rating, Morningglory [7, 14]: 80
Plant response rating, Morningglory [7, 15]: 95
Plant response rating, Kochia (kochia (Kochia scoparia); [13]): 65
Plant response rating, Kochia (kochia (Kochia scoparia); [14]): 98
Plant response rating, Kochia (kochia (Kochia scoparia); [15]): 100
Plant response rating, Foxtail, Green [8, 13]: 55
Plant response rating, Foxtail, Green [8, 14]: 90
Plant response rating, Foxtail, Green [8, 15]: 90
Plant response rating, Corn (corn (Zea mays); [13]): 5
Plant response rating, Corn (corn (Zea mays); [14]): 60
Plant response rating, Corn (corn (Zea mays); [15]): 85
Plant response rating, Crabgrass, Large [9, 13]: 70
Plant response rating, Crabgrass, Large [9, 14]: 95
Plant response rating, Crabgrass, Large [9, 15]: 100
Plant response rating, Goosegrass [10, 13]: 80
Plant response rating, Goosegrass [10, 14]: 95
Plant response rating, Goosegrass [10, 15]: 100
Plant response rating, Lambsquarters [11, 13]: 98
Plant response rating, Lambsquarters [11, 14]: 100
Plant response rating, Lambsquarters [11, 15]: 100
Plant response rating, Pigweed [12, 13]: 85
Plant response rating, Pigweed [12, 14]: 100
Plant response rating, Pigweed [12, 15]: 100

O=C1CCCC(O)=C1C(=O)c1cnc(-c2ccsc2)n(C2CCOCC2)c1=O [Compound 186]
Plant response rating, Johnsongrass [1, 13]: 65
Plant response rating, Johnsongrass [1, 14]: 75
Plant response rating, Johnsongrass [1, 15]: 100
Plant response rating, Cupgrass, Woolly [2, 13]: 70
Plant response rating, Cupgrass, Woolly [2, 14]: 80
Plant response rating, Cupgrass, Woolly [2, 15]: 85
Bromegrass, Downy plant response rating (0 to 100 scale) ([3]; 13 to 15 days): 25
Plant response rating, Bromegrass, Downy [3, 13]: 5
Plant response rating, Bromegrass, Downy [3, 14]: 30
Plant response rating, Bromegrass, Downy [3, 15]: 50
Plant response rating, Velvetleaf [4, 13]: 70
Plant response rating, Velvetleaf [4, 14]: 100
Plant response rating, Velvetleaf [4, 15]: 100
Plant response rating, Soybean (soybean (Glycine max); [13]): 85
Plant response rating, Soybean (soybean (Glycine max); [14]): 100
Plant response rating, Soybean (soybean (Glycine max); [15]): 100
Plant response rating, Oat, Wild (wild oat (Avena fatua); [13]): 0
Plant response rating, Oat, Wild (wild oat (Avena fatua); [14]): 20
Plant response rating, Oat, Wild (wild oat (Avena fatua); [15]): 45
Blackgrass plant response rating (0 to 100 scale) ([5]; 13 to 15 days): 0
Plant response rating, Blackgrass [5, 13]: 0
Plant response rating, Blackgrass [5, 14]: 5
Plant response rating, Blackgrass [5, 15]: 20
Plant response rating, Nutsedge, Yellow [6, 13]: 65
Plant response rating, Nutsedge, Yellow [6, 14]: 75
Plant response rating, Nutsedge, Yellow [6, 15]: 80
Plant response rating, Morningglory [7, 13]: 95
Plant response rating, Morningglory [7, 14]: 100
Plant response rating, Morningglory [7, 15]: 100
Plant response rating, Kochia (kochia (Kochia scoparia); [13]): 75
Plant response rating, Kochia (kochia (Kochia scoparia); [14]): 100
Plant response rating, Kochia (kochia (Kochia scoparia); [15]): 100
Plant response rating, Foxtail, Green [8, 13]: 50
Plant response rating, Foxtail, Green [8, 14]: 85
Plant response rating, Foxtail, Green [8, 15]: 95
Plant response rating, Corn (corn (Zea mays); [13]): 10
Plant response rating, Corn (corn (Zea mays); [14]): 30
Plant response rating, Corn (corn (Zea mays); [15]): 65
Plant response rating, Crabgrass, Large [9, 13]: 80
Plant response rating, Crabgrass, Large [9, 14]: 85
Plant response rating, Crabgrass, Large [9, 15]: 95
Plant response rating, Goosegrass [10, 13]: 85
Plant response rating, Goosegrass [10, 14]: 98
Plant response rating, Goosegrass [10, 15]: 100
Plant response rating, Lambsquarters [11, 13]: 98
Plant response rating, Lambsquarters [11, 14]: 100
Plant response rating, Lambsquarters [11, 15]: 100
Plant response rating, Pigweed [12, 13]: 85
Plant response rating, Pigweed [12, 14]: 100
Plant response rating, Pigweed [12, 15]: 100

— patent US8952024B2, “Herbicidal pyrimidone derivatives” (E I du Pont de Nemours and Company, priority 2009, dated 2015)
